The values that follow come from patent publication US20210386761A1, “COMPOSITION FOR PREVENTING OR TREATING INFLAMMATORY BOWEL DISEASE, CONTAINING, AS ACTIVE INGREDIENT, TAURODEOXYCHOLIC ACID OR PHARMACEUTICALLY ACCEPTABLE SALT THEREOF” (SHAPERON INC., priority 2019, published 2021).

Assay [1] deals with lamina propria mononuclear cells (LPMC) in the colon tissue. Put plainly: Inflammatory cell analysis (FACS of LPMC from colon tissue) in 2% DSS mouse model. It counts as in vivo. Conditions: Day 7; for numbers of CD11b+, Ly6g+, Ly6c+, CD3+, CD4+, CD8+, CD19+, and MHCII+CD11c+ LPMCs in the colon tissue: FIG. 7A. The procedure: A colon tissue was obtained from a mouse which had been subjected to an experiment by the same method as that described in <Example 2> and put into 30 ml of EDTA and dissociated by being stirred at 37° C. for 30 minutes in order to remove mucus. Next, the tissue was drained with a strainer (70 μm) and washed with warm DPBS. The washing process was repeated a total of 4 to 5 times. An enzyme mixture was prepared by adding 2.35 ml of RPMI 1640 or DMEM, 100 μl of enzyme D, 50 μl of enzyme R, and 12.5 μl of enzyme A to a gentleMACS C tube (Miltenyi Biotec, 130-096-334, Bergisch Gladbach, Germany). The tissue was transferred to the gentleMACS C tube containing the enzyme mixture and dissociated using the gentleMACS Dissociator (Miltenyi Biotec, 130-093-235, Bergisch Gladbach, Germany). Next, the reaction was conducted at 37° C. for 40 minutes in a thermal incubator (Thermo scientific, BB-15, Waltham, Mass., USA) under continuous rotation using a MACSmix Tube Rotator. The digested cells were resuspended in 4 ml of 40% Percoll solution. […]
In order to confirm changes in the number of inflammatory cells, FACS analysis was performed. […] Next, the cells were washed two times with DPBS, resuspended in 200 μl DAPI, then analyzed using a flow cytometer (LSR Fortessa cytometer, Mississauga, Canada), and graphed.
Specifically, female C57BL/6 mice were fed with a 2% DSS solution together with drinking water for 7 days from Day 0 of the experiment by the same method as that described in <Example 1>, DPBS or 5 mg/kg TDCA was administered to the mice by oral gavage one time a day for 6 days from Day 1 of the experiment, and the body weight and DAI were measured daily. […]
Specifically, female C57BL/6 mice were fed with a 2% DSS solution together with drinking water for 7 days from Day 0 of the experiment by the same method as that described in <Example 1>, DPBS or 5 mg/kg TDCA was administered to the mice by oral gavage from Day 1 of DSS administration or 2 days before DSS administration, and the body weight and DAI were measured daily. […]

The subject of assay [2] is chronic inflammatory bowel disease model induced with 2.5% DSS. The assay can be described thus: Chronic inflammatory bowel disease model, repeated 2.5% DSS, comparison with clinical prescription drugs. The class given is in vivo, mouse. The procedure:
In order to evaluate the clinical symptoms-improving efficacy in comparison with those by clinical prescription drugs, inflammatory bowel disease was induced by 7-day or repeated administration of 3% or 2.5% DSS solution, and tofacitinib 10 mg/kg, 5-ASA 100 mg/kg or 200 mg/kg, prednisolone 1 mg/kg, and TDCA 2.5 mg/kg were administered one time a day from the start date of DSS administration. From the start date of DSS administration, TDCA 2.5 mg/kg was administered one time a day (QD), two times a day (BID), and three times a day (TID).

Molecules are shown by their SMILES.

`C[C@H](CCC(=O)NCCS(=O)(=O)O)[C@H]1CC[C@H]2[C@@H]3CC[C@@H]4C[C@H](O)CC[C@]4(C)[C@H]3C[C@H](O)[C@]12C` [TDCA, sodium taurodeoxycholic acid]: in assay [1] (2% DSS 7 days, 5 mg/kg TDCA oral gavage, vs DSS+DPBS group, FIG. 3A), the “numbers of CD11b+, Ly6g+, and Ly6c+ LPMCs in the colon tissue” value is given as “decreased”. Also, the “numbers of CD11b+, Ly6g+, Ly6c+, CD3+, CD4+, CD8+, CD19+, and MHCII+CD11c+ LPMCs in the colon tissue” value in assay [1] (DSS+TDCA group: 5 mg/kg TDCA from Day 1 of DSS) and in assay [1] (DSS+preTDCA group: 5 mg/kg TDCA from 2 days before DSS) was “decreased” each time. Also, the “body weight change, compared with clinical prescription drugs” value in assay [2] (TDCA 2.5 mg/kg QD, BID and TID vs tofacitinib 10 mg/kg and 5-ASA 200 mg/kg, FIG. 11A) was “effect equivalent to or higher than those by tofacitinib 10 mg/kg and 5-ASA 200 mg/kg”. In addition, the “mortality, compared with clinical prescription drugs” value in assay [2] (TDCA 2.5 mg/kg, FIG. 11B) is “effect equivalent to or higher than those by clinical prescription drugs”.
